According to patent publication US20120065123A1, “Synthetic Antibodies” (priority 2009, published 2012):
Read-outs that look alike come from different tables or passages of the source. Where no end group is shown, it is not given here. The star is where a group is joined. StBu = CC(C)(C)S*

Legend:
Format in all cases: binding
Transferrin [1] = target: T1, Transferrin (Homo sapiens, UniProt P02787); assay: SPR steady state affinity of mRNA display clones (Biacore T100); settings: for Kd: steady state affinity model
T1 sequence (P02787 20-698): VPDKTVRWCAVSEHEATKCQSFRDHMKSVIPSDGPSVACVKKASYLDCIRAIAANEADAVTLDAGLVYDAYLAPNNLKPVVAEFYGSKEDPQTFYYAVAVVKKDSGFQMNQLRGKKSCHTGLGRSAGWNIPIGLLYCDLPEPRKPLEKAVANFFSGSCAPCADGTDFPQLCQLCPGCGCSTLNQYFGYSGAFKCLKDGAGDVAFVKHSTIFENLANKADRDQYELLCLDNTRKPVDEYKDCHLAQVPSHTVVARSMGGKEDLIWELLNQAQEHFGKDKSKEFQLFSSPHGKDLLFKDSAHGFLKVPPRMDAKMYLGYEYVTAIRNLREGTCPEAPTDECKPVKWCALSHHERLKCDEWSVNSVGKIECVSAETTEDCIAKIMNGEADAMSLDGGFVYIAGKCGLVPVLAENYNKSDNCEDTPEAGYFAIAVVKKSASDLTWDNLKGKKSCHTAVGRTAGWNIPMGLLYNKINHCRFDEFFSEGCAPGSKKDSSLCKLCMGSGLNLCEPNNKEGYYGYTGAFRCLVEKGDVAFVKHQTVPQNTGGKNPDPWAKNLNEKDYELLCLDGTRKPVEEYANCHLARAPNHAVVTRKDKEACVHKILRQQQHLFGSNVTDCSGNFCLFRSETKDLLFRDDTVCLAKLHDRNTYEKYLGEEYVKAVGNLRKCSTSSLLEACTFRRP
Description: Five clones (see Table 15) were selected, synthesized and purified by HPLC for characterization by surface plasmon resonance (SPR) (T 100 instrument from Biacore). Transferrin was immobilized using standard NHS/EDC immobilization chemistry according to the methods described in Frostell-Karlsson, A., Remaeus, A., Andersson, K., Borg, P., Hamalainen, M., and Karlsson, R. (2000) J. Med. Chem. 43, resulting in 9758 RU of immobilized protein. HPLC purified peptides were injected over the surface and sensograms were recorded at multiple concentrations (32, 16, 8, 4, 2, 1, 0.5, 0.25, 0.125, and 0.0625 μM). Affinity plots were generated for each peptide and fit using a steady state affinity model.

Transferrin [2] = target: T1, Transferrin; assay: SPR solution phase KD of candidate affinity elements, transferrin immobilized (Biacore T100); settings: steady-state response, 25° C., PBST
Description: Transferrin 25 μg/ml in immobilization buffer selected for correct pH was then applied 302 at a flow rate of 5 to 10 μl/min for a contact time of about 5 to 10 minutes, allowing the amine functionality on the transferrin 308 to displace the activated NHS ester and bond to the surface via an amide bond. Finally, ethylene diamine (1M ethylene diamine-HCl at pH 8.5) was applied 304 at a flow rate of 5 to 10 μl/min for a contact time of about 6 to 7 minutes to deactivate any remaining reactive groups on the dextran chip surface. Flow rates and contact times are adjusted as necessary to provide the surface concentration of target desired for the intended application, and may vary by target. In general, for evaluating whether binding occurs, it is preferable to immobilize a relatively large quantity of target, and higher flow rates and/or longer contact times may be used. For determining kinetics, it is preferable to limit the amount of target immobilized so as to minimize rebinding and avidity effects, and lower flow rates and/or contact times may be used.
Candidate affinity elements for the transferrin synbody TRF19, TRF21, TRF23, TRF24, TRF25, and TRF26 were individually evaluated for solution phase KD with respect to transferrin by SPR analysis. Because the off rates for these polypeptides were very high, KD values were estimated by measuring steady-state response for at least five concentrations in a two-fold dilution series, each concentration tested in duplicate. For each experiment, response data were processed using a reference surface to correct for bulk refractive index changes and any non-specific binding. Data were also double referenced using responses from blank running buffer injections. Each experiment was conducted at 25° C. using PBST (0.01M Phosphate Buffered Saline, 0.138M NaCl, 0.0027M KCl, 0.05% surfactant Tween20, pH 7.4) as the running buffer on a Biacore T100 instrument. Analytes were injected for 60 s at a flow rate of 30 μl/min. The antigen surfaces were regenerated with 30 s consecutive pulses of NaOH/NaCl (50 mM NaOH in 1M NaCl) and Glycine (10 mM glycine-HCl, pH 2.5).

Transferrin [3] = target: T1, Transferrin; assay: Peptide microarray ranking, labeled transferrin with E. coli lysate competitor; settings: for Rank -- prewash: array with organic prewash; for Rank - non-prewash: array without organic prewash
Description: Several polypeptides were identified as candidate affinity elements for synbodies against an arbitrarily chosen protein target, transferrin, by incubating transferrin on the polypeptide microarray in the presence of E. coli lysate competitor. Transferrin was randomly direct-labeled at free amines with Alexa™ 555, and E. coli lysate was randomly direct-labeled at free amines with Alexa™ 647. Three replicate arrays were passivized by applying a mixture of BSA and mercaptohexanol for one hour. The arrays were blocked with unlabelled E. coli lysate for one hour, then washed three times with TBST (0.05% Tween) followed by three times with water. A mixture of labeled transferrin and labeled E. coli lysate was applied to the three replicate arrays and incubated for three hours. The arrays were again washed three times with TBST (0.05% Tween) followed by three times with water, and scanned at 555 nm and 647 nm using an array reader. Polypeptides were ranked as candidates for inclusion as affinity elements of synbodies by computing a score for each polypeptide equal to the mean raw 555 nm intensity over the six replicate features, squared, divided by the mean raw 647 nm intensity over the six replicate features. This simple scoring function tends to favor candidate polypeptides that bind at least moderate affinity, since otherwise the 555 nm intensity would be relatively lower, and that are relatively specific, since otherwise the 647 nm intensity would be relatively higher and contribute to a relatively lower score. Many variations of this ranking and identification process can be used, such as, by way of non-limiting examples, two-color comparisons against other competitors; comparisons with data taken in separate experiments with respect to other targets; and use of scoring functions taking into account other factors, employing other functional relationships, and/or involving statistical analysis and/or preprocessing of data and/or correcting for background fluorescence and/or other factors affecting the accuracy of the measured intensities. Ten polypeptides (Table 1) were identified for further evaluation for use as affinity elements in synbodies by choosing the polypeptides having the highest score (one polypeptide was rejected as difficult to synthesize, so the polypeptides chosen were ten of those having the eleven highest scores).
After preparation of the array in accordance with the methods previously described in Example 2, the array was washed one time for five minutes in 7.33% acetonitrile, 37% isopropanol, 0.55% trifluoroacetic acid, and 55% water. Alexa 555 labeled target protein transferrin was applied, together with Alexa 647 labeled E. coli lysate competitor, to the prewashed array and to an identical array without organic prewash. […] 5,010 on the array without organic prewash, but ranked no. 9601 on the prewashed array. Conversely, peptide TRF-21, shown by SPR analysis to be a relatively strong binder of transferrin, rose in rank from 84 on the non-prewashed array to rank no. 5 on the prewashed array.

TNF-α = TNF-α (Homo sapiens, UniProt P01375); assay: SPR of TNF1 lead and mutant peptides on captured TNF-α (Biacore A100); settings: for Binding ΔG (observed): calculated from dissociation constants; for Predicted Binding ΔG: sum of component contributions, energetic additivity
Sequence of TNF-α (P01375 77-233 limits assumed, species assumed): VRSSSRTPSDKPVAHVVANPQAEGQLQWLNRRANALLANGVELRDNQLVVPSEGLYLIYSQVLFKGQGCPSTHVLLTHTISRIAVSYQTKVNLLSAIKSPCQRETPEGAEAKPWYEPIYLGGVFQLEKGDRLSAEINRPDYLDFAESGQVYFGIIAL
Description: Scanning Mutagenesis of the TNF1 Lead Peptide. After lead identification, the next step in the AMPLI algorithm is characterization of point mutations in the lead heteropolymer. Using short peptides makes it chemically feasible to synthesize a significant fraction of the point-mutant space, which can then be screened for enhanced point mutations. For example, all possible point mutations in the 17 randomized positions using all 20 natural amino acids could be synthesized and screened within a single 384-well plate (323 total point-mutants). However, libraries containing all 20 natural amino acids are not required for affinity optimization of protein-protein interactions. A library of TNF1 point-mutants containing all substitutions of the amino acid set {Y, A, D, S, K, N, V, W} in each of the 17 randomized positions (132 unique point-mutants) was synthesized. Tyrosine (Y), alanine (A), aspartic acid (D) and serine (S) were selected because of their effectiveness in producing high affinity interactions when substituted into the complementary-determining regions (CDRs) of synthetic antibodies (Felouse, Proceedings of the National Academy of Sciences 101(34):12467, 2004), lysine (K) was selected to balance the charge in the substitution set, asparagine (N), valine (V) and tryptophan (W) were selected to span the hydropathicity range (Kyte J & Doolittle R F, Journal of Molecular Biology 157(1):105-132, 1982). […] This concentration was used to increase the high-end dynamic range for quantifying enhancing point mutations at the expense of low-end dynamic range for quantifying detrimental point mutations.
Point-mutant libraries were prepared in 96-well stock plates From the stock plate, peptides were diluted to 50 μM concentration in Biacore HBS-EP buffer (GE Healthcare, Piscataway, N.J.) containing 1 mg/ml carboxymethyl-dextran (Sigma-Aldrich, St. Louis, Mo.) to reduce non-specific binding to the CM-5 SPR chip surface. TNF-α was captured on a CM-5 chip surface at different capture levels on spots 1, 2, 4, and 5 across all four flow cells corresponding to a 40-200 RU range of predicted Rmax binding responses. Spot 3 contained only immobilized neutravidin and served as a reference spot.
Using the prepared 96-well plates and Biacore A100 SPR instrument, four peptides were flowed separately, in parallel, through the four flow cells over all 4 TNF-α spots and the neutravidin reference spot, with a 60 second association phase and 300 second dissociation phase. SPR sensorgrams were recorded for each peptide response with all 4 TNF-α spots and the neutravidin reference spot across the four flow cells on the SPR chip. Surface regeneration was performed after every 12 injections in each flow cell with Biacore Glycine 2.5 regeneration solution (GE Healthcare, Piscataway, N.J.). Point-mutant reference subtracted, peptide molecular weight adjusted, responses at the late binding region of the sensorgram (a few seconds before dissociation) were compared to the response of the TNF1 lead
Purified point-mutant affinities were measured on the Biacore A100 using SPR equilibrium binding response across a series of peptide concentrations on an SPR chip with TNF-α captured as described above.
These sequences were synthesized and purified using standard solid-phase FMOC synthesis and HPLC purification.

[4] = target: Tumor Necrosis Factor-alpha (TNF-α) (Homo sapiens, UniProt P01375); assay: Chromatographic affinity screening on protein-coupled pipette tips with MALDI readout; settings: 500 nM each synbody in E. Coli Lysate
Sequence of Tumor Necrosis Factor-alpha (TNF-α) (P01375 77-233 limits assumed, species assumed): as above
Description: The target proteins, Transferrin (TRF) and Tumor Necrosis Factor-alpha (TNF-α), were each covalently attached to pipette tips (one protein per pipette tip) containing carboxymethyl dextran matrix (Intrinsic Bioprobes, Tempe, Ariz.) using standard amine coupling chemistry. The unmodified tips were first washed with 0.5 M HCl followed by acetone. Each tip was activated using a 50 mg/mL solution of […] (CDI) in N-methyl-pyrolidone (NMP). Each tip was washed with NMP to remove excess CDI. Each protein was prepared as a 50 μg/mL solution in 100 mM sodium acetate pH 5.0 and cycled through a CDI activated tip for 30 minutes. Un-reacted CDI in the tip was then quenched with the addition of 1.5 M ethanolamine pH 8.5 and then washed extensively with HBS-N buffer. The protein-coupled tips were then stored in HBS-N buffer at 4° C. Negative control tips were prepared in the same manner except that no protein was added to the sodium acetate solution during the protein coupling step.
A library of 14 candidate synbodies (Table 9) was prepared by making 12 μM stock solutions in 1× phosphate buffered saline (PBS) of each HPLC purified synbody and […] of each stock solution was added to 600 μL of E. Coli Lysate that had been treated with a protease inhibitor. Thus the final concentration of each synbody was 500 nM.
A negative control pipette tip (blank tip), a TRF tip, and a TNF-α tip, were washed with 0.1% sodium dodecyl sulfate (SDS) to remove any non-covalently bound protein and then washed with HBS buffer. The tips were then incubated for 15 minutes in 150 μL of the synbody library. Each tip was then washed 5 times in 150 μL of HBS-N. This step was then repeated and each tip was washed 5 times in 150 μL of 0.25 M NaCl. Each tip was then washed 5 times in 150 μL of Milli-Q water and this step was repeated. […]
Each elution sample was spotted onto a MALDI plate and analyzed in reflectron mode on a Bruker Daltonics UltraFlex III TOF/TOF MALDI Mass Spectrometer.

[5] = SPR equilibrium binding response, read-out: Kd (observed)
[6] = energetic additivity of component mutations, read-out: Predicted Kd

AHKVVPQRQMRHAYSRYGSC [TBPM023]
fold improvement of affinity in comparison to TRF26 (Transferrin [1]): more than 10 fold
Kd (Transferrin [1]): 11.6 µM

APYAPQQIHYWSTLGFKGSC [TRF25]
Kd (Transferrin [2]): ~60 µM
Rank -- prewash (Transferrin [3]): 603
Rank - non-prewash (Transferrin [3]): 736

FERDPLMMPWKFLQSRQGSC [Synbody S11K]
Component Binding ΔG Contribution (TNF-α): -0.82 ± 0.13 kcal/mol
Kd Fold-Change Relative to Lead (TNF-α): 3.9 ± 0.9
Kd (TNF-α; [5]): 40 ± 7.2 µM
Binding ΔG (observed) (TNF-α): -6.03 ± -.10 kcal/mol

FERDPLMMPWSFLQSRQGSC [TNF1]
Binding ΔG (observed) (TNF-α): -5.21 ± 0.07 kcal/mol

FERSYLMMPWKFLQSRQGSC [D4S + P5Y + S11K]
Kd Fold-Change Relative to Lead (TNF-α): 23 ± 3.2
observed binding energy difference to the D4S+P5Y+M7K+S11K quadruple mutant (TNF-α): -0.94 ± 0.12 kcal/mol
Kd (TNF-α; [5]): 7 ± 0.5 µM
Binding ΔG (observed) (TNF-α): -7.03 ± 0.04 kcal/mol
Kd (TNF-α; [6]): 2.8 to 5.3 µM
Predicted Binding ΔG (TNF-α): -7.38 ± 0.19 kcal/mol

FERYPLKMPWSFLQSRQGSC [D4Y + M7K]
Kd Fold-Change Relative to Lead (TNF-α): 9.4 ± 1.6
Kd (TNF-α; [5]): 17 ± 1.9 µM
Binding ΔG (observed) (TNF-α): -6.54 ± 0.07 kcal/mol
Kd (TNF-α; [6]): 8.5 to 20 µM
Predicted Binding ΔG (TNF-α): -6.66 ± 0.25 kcal/mol

FERYPLMMPWKFLQSRQGSC [D4Y + S11K]
Kd Fold-Change Relative to Lead (TNF-α): 17 ± 2.5
Kd (TNF-α; [5]): 9.3 ± 0.7 µM
Binding ΔG (observed) (TNF-α): -6.67 ± 0.05 kcal/mol
Kd (TNF-α; [6]): 8 to 15 µM

FERYPLMMPWSFLQSRQGSC [Synbody D4Y]
Component Binding ΔG Contribution (TNF-α): -0.74 ± 0.10 kcal/mol
Kd Fold-Change Relative to Lead (TNF-α): 3.6 ± 0.6
Kd (TNF-α; [5]): 44 ± 4.8 µM
Binding ΔG (observed) (TNF-α): -5.95 ± 0.06 kcal/mol

GHKVVPQRQIRHAYNRYGSC [TBPL005]
Kd (Transferrin [1]): 150 µM

GHKVVPQRQMRHAYNRNGSC [TBPL025]
Kd (Transferrin [1]): 150 µM

GQTQFAMHRFQQWYKIKGSC [TRF20]
Rank -- prewash (Transferrin [3]): 289
Rank - non-prewash (Transferrin [3]): 18

HAYKGPGDMRRFNHSGMGSC [TRF22]
Rank -- prewash (Transferrin [3]): 61
Rank - non-prewash (Transferrin [3]): 711

KEDNPGYSSEQDYNKLDGSC [TRF19]
Kd (Transferrin [2]): ~150 µM
Rank -- prewash (Transferrin [3]): 9601
Rank - non-prewash (Transferrin [3]): 5010
Rank - non-prewash (Transferrin [3]; listed as TRF-19): 5,010

LDPLFNTSIMVNWHRWMGSC [TRF27]
Rank -- prewash (Transferrin [3]): 3325
Rank - non-prewash (Transferrin [3]): 1289

QYHHFMNLKRQGRAQAYGSC [TRF21]
Kd (Transferrin [2]): ~60 µM
Rank -- prewash (Transferrin [3]): 5
Rank - non-prewash (Transferrin [3]): 84

SVKPWRPLITGNRWLNSGSC [TRF24]
Kd (Transferrin [2]): ~50 µM
Rank -- prewash (Transferrin [3]): 958
Rank - non-prewash (Transferrin [3]): 71

TNF2-TNF3-KC-stBu: lysine-linked synbody (peptide 1 SMKMVQPGHLLISYGHQGSGKC(StBu); peptide 2 RTTEMPFVFALGSVHPGGSG; not fully specified)
MALDI peak in TNF-α tip elution (retention by target) [4]: showed a peak
